As a reminder, the Km is the concentration of substrate that gives half-maximal velocity.

Series [1] concerns E. coli Rosetta empty vector control (pET21_Empty). The experiment in a line: Growth of empty vector control E. coli in media spiked with formaldehyde. Type of series: cell-based. The following applies: LB plus formaldehyde (2 mM) or mixture of M9 and LB plus formaldehyde (1.5 mM). The procedure:
FIGS. 42A-B show growth of E. coli expressing HPS and PHI genes from M. gastri. The ability of E. coli to grow in A) LB or B) mixed M9:LB (3:1) spiked with formaldehyde was assessed. Log phase cultures of E. coli harboring pET_M.g.PHI_HPS (circles) or pET21_Empty (squares) were induced with 0.5 mM IPTG for 3 h before being diluted into test media containing 2 mM formaldehyde (LB) or 1.5 mM formaldehyde (M9:LB). Aliquots were taken from the cultures at the indicated time points to determine the optical density (OD600). Arrows indicate times in which the cultures were spiked with (A) 2 mM or (B) 1.5 mM formaldehyde.
Primers were designed to amplify the Mycobacterium gastri phi-hps operon, which encodes the genes necessary to fix formaldehyde to ribulose-5-phosphate yielding hexulose-6-phosphate, and then convert […] to fructose-6-phosphate. Genes were amplified and initially cloned into the expression vector pET21a (Novagen). This vector utilizes the T7 promoter, and was transformed into the Rosetta strain of E. coli. E. coli Rosetta expressing the M. gastri PHI-HPS operon was compared with an empty vector control for growth in LB with 2 mM formaldehyde (FIG. 42A-B). […] When the same strains were tested in M9 minimal media containing only formaldehyde (0.25 mM) as the sole carbon source, no increase in OD600 was observed (FIG. 43).

The subject of a further series is E. coli pETM6_Pfrm_GFP. In kind it is cell-based. The following applies: 2 and 4 mM HCHO, MOPS+0.1% glucose. From the text: (§1) GFP expression correlated with HCHO concentration over time. Overnight LB cultures were transferred to MOPS+0.1% glucose for the experiment.
For the next series, the system named is E. coli pACM4_pFRM_GFP. Type of series: cell-based. The following applies: 500 and 1000 μM HCHO, MOPS+0.1% glucose.
Excerpt: as §1

Series [2] deals with formate dehydrogenase (FDH, fdh) from Clostridium carboxidivorans P7T. The following applies: read-out: Km (for NADH); cited from earlier work.
Series [3] concerns E. coli pACM4_pFRM_GFP+pETM6-BstMDH. Type of series: cell-based. The following applies: 2000 and 4000 mM methanol, MOPS+0.1% glucose. An excerpt:
Overnight LB cultures were transferred to MOPS+0.1% glucose for the experiment.

Substrate in series [4]: CO
The experiment in a line: cells, lysate or membranes named. The following applies: other: crude cell extracts of E. coli, in vitro.

Regarding `C=O` [formaldehyde], the growth result in series [1] is on record as “unable to grow”; in the series on E. coli pETM6_Pfrm_GFP it was “No growth was observed”; in the series with E. coli pACM4_pFRM_GFP it was “Retarded growth”.
Turning to `NC(=O)C1=CN([C@@H]2O[C@H](COP(=O)(O)OP(=O)(O)OC[C@H]3O[C@@H](n4cnc5c(N)ncnc54)[C@H](O)[C@@H]3O)[C@@H](O)[C@H]2O)C=CC1` [NADH], in series [2], the Km was 50 µM.
With `CO` [methanol], the growth entry in series [3] is “Retarded growth”.

B1: methanol dehydrogenase MDH1 (MDH) from Bacillus stearothermophilus (Geobacillus stearothermophilus) (protein)
chain: MKAAVVNEFKKALEIKEVERPKLEEGEVLVKIEACGVCHTDLHAAHGDWPIKPKLPLIPGHEGVGIVVEVAKGVKSIKVGDRVGIPWLYSACGECEYCLTGQETLCPHQLNGGYSVDGGYAEYCKAPADYVAKIPDNLDPVEVAPILCAGVTTYKALKVSGARPGEWVAIYGIGGLGHIALQYAKAMGLNVVAVDISDEKSKLAKDLGADIAINGLKEDPVKAIHDQVGGVHAAISVAVNKKAFEQAYQSVKRGGTLVVVGLPNADLPIPIFDTVLNGVSVKGSIVGTRKDMQEALDFAARGKVRPIVETAELEEINEVFERMEKGKINGRIVLKLKED
Take B1: in series [4], the Michaelis-Menten constant (Km) worked out at 27000 µM.

The record behind these values is patent publication US10717964B2, “Synthetic methylotrophy to liquid fuels and chemicals” (University of Delaware, priority 2014, dated 2020).
